Test results as given in paper PMC7966211, “Cooperativity of membrane-protein and protein–protein interactions control membrane remodeling by epsin 1 and affects clathrin-mediated endocytosis” (Cellular and Molecular Life Sciences: CMLS, 2020).
Blank lines part the entries; values can stand above or below the molecule they belong to.

What was measured:
[1] = biological target: T1, ENTH domain of epsin1 (ENTH^WT; Rat Epsin1 WT ENTH 1–164) (Rattus norvegicus, UniProt O88339); experiment: LUV co-sedimentation with SDS-PAGE, electron microscopy, DLS: partial restoration of oligomerization and membrane remodeling; assay type: biochemical; details: 4 times molar excess of L-SOP to ENTH; PS-free PC/PE/PI(4,5)P2 (65:30:5) LUVs; effect on oligomerization, binding not measured directly
T1 construct: gene Epn1; ENTH domain residues 1-164, pGEX-6P-2, expressed in E. coli BL21(DE3), GST tag cleaved with PreScission protease
T1 sequence (O88339 1-164): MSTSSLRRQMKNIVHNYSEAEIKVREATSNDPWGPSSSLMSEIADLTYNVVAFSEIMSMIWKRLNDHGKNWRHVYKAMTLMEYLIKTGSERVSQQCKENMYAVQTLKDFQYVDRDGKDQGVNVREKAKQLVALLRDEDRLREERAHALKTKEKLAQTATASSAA

[2] = biological target: T1, ENTH domain of epsin1 (ENTH^WT; Rat Epsin1 WT ENTH 1–164); experiment: reflectometric interference spectroscopy (RIfS), Langmuir adsorption isotherm; assay type: binding; details: PI(4,5)P2 in supported POPC/PI(4,5)P2 (95:5) bilayer without PS; PBS pH 7.4; apparent membrane dissociation constant in protein concentration
Source text: (§1) reflectometric interference spectroscopy (RIfS), Langmuir adsorption isotherm on ENTH domain of epsin1 (ENTH^WT; Rat Epsin1 WT ENTH 1–164)

[3] = biological target: T2, ENTH domain of epsin1 (ENTH^WT; Rat Epsin1 WT ENTH 1–164) (Rattus norvegicus, UniProt O88339, R114A); experiment: as above; assay type: binding; details: PI(4,5)P2 in supported POPC/PI(4,5)P2 (95:5) bilayer without PS; PBS pH 7.4; apparent membrane dissociation constant in protein concentration
T2 construct: gene Epn1; ENTH domain residues 1-164, pGEX-6P-2, expressed in E. coli BL21(DE3), GST tag cleaved with PreScission protease
T2 sequence (O88339 1-164 R114A): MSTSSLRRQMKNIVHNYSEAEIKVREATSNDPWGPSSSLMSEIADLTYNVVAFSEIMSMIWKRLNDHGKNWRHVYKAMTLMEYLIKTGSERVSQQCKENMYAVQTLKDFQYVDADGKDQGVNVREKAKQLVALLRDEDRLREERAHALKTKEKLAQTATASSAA
Source text: as §1

[4] = biological target: the molecule itself; experiment: SDS-resistant oligomers on SDS-PAGE after liposome co-sedimentation; 20 µM protein with 2 mg/ml LUVs that contain PS (Folch + PI(4,5)P2, or PC/PE/PS/PI(4,5)P2 with 5-20% PS), 3 h 30 °C, HEPES buffer, 205,000 x g, pellet and supernatant on SDS-PAGE; self-association on membranes
[5] = biological target: the molecule itself; experiment: FRET or BRET; Atto488-labeled (donor) and Atto532-labeled (acceptor) ENTH domains, total 5 and 15 µM, in 2 mg/ml LUV suspension; LUVs PC/PE/PS/PI(4,5)P2 (45:30:20:5) compared with PS-free PC/PE/PI(4,5)P2 (65:30:5), on which the wild type gave reduced FRET; excitation 493 nm

Molecule: N[C@@H](COP(=O)(O)O)C(=O)O [L-SOP]
- LUV co-sedimentation with SDS-PAGE, electron microscopy, DLS: partial restoratio [1]: presence of the PS headgroup was sufficient to partially restore oligomerization and membrane remodeling

- Kd [2]: 1 ± 0.2 µM
- Kd [3]: 2.9 ± 0.8 µM
Molecule: PI(4,5)P2

B1: Rat Epsin1 WT ENTH 1-164 (domain or fragment, UniProt O88339 1-164, looked up)
chain: MSTSSLRRQMKNIVHNYSEAEIKVREATSNDPWGPSSSLMSEIADLTYNVVAFSEIMSMIWKRLNDHGKNWRHVYKAMTLMEYLIKTGSERVSQQCKENMYAVQTLKDFQYVDRDGKDQGVNVREKAKQLVALLRDEDRLREERAHALKTKEKLAQTATASSAA
notes: Epsin 1, rat, ENTH (epsin N-terminal homology) domain, residues 1-164; Expressed from pGEX-6P-2; also called ENTH domain; ENTH^WT; source: E. coli BL21(DE3), purified (GSTrap, GST cleaved with PreScission Protease, anion exchange, SEC)
- binding result [4]: binds

B2: ENTH WT (C96A A155C), fluorescently labeled (domain or fragment, rat, UniProt O88339 1-164, looked up)
chain: MSTSSLRRQMKNIVHNYSEAEIKVREATSNDPWGPSSSLMSEIADLTYNVVAFSEIMSMIWKRLNDHGKNWRHVYKAMTLMEYLIKTGSERVSQQAKENMYAVQTLKDFQYVDRDGKDQGVNVREKAKQLVALLRDEDRLREERAHALKTKEKLCQTATASSAA
modifications: Atto488 maleimide (donor population) or Atto532 maleimide (acceptor population) by cysteine modification
notes: Epsin 1, rat, ENTH domain, residues 1-164, with C96A and A155C for labeling; Two populations of the same construct, one with Atto488 and one with Atto532, were mixed for FRET; also called ENTH-Atto-488; ENTH-Atto-532; source: E. coli BL21(DE3), purified (GSTrap, GST cleaved with PreScission Protease, anion exchange, SEC), then labeled
- binding result [5]: binds
